Literature values in patent publication US20160022811A1 (Teva Pharmaceutical Industries Ltd., priority 2013, published 2016).

Tested on: relapsing-remitting MS (RRMS)
Details: registration trials, comparison with placebo

Substance: L-glutamic acid polymer with L-alanine, L-lysine, L-tyrosine, acetate (salt) [glatiramer acetate]
- reduction of relapse rate: about one third
